{"source": "patent US8486464B2", "about": "“Herbal composition for angina pectoris, method to prepare same and uses thereof” (Tasly Pharmaceutical Group Co. Ltd., priority 2000, dated 2013)", "key": {"CK, LDH": {"system": "CK, LDH", "test": "Dog blood serum CK and LDH", "assay_type": "in vivo", "details": "dogs, Dan Shen Pill 2 g/kg", "protocol": "(§1) 1.1 Experimental Groups. (1) Blank control group, normal saline 3 ml/kg; (2) DSP group, 2 g natural drug/kg; (3) positive control group, Ditiazem, 5 mg/kg. All the above samples are diluted with normal saline to the same volume of 3 ml/kg and were given to the patient through the duodenum.\n(§2) 1.2 Experimental Method. The dogs are anesthetized with pentobarbital sodium. Chests were opened and coronary arterioles and the central part of the dorsal lower branch separated and tied to create an acute myocardial ischemia model. ECGs were recorded and the level of myocardial ischemia (increased section ST, ST) and area of myocardial ischemia (the total increased decimal places in section ST) were calculated. The oxygen content in the coronary artery was recorded. Blood serum creatine kinase (CK), lactate dehydrogenase (LDH), ET, TXB2 and 6-Keto-PGF1 were measured. The oxygen content of the aorta and coronary vein, and blood flow volume in the coronary arteries were measured to calculate myocardial oxygen consumption. Blood oxygen content in the coronary vein was measured to calculate myocardial oxygen content (myocardial oxygen content=(blood oxygen content in arteries-blood oxygen content in coronary veins)×blood flow volume in coronary artery/100)."}, "dizziness": {"system": "dizziness", "test": "Dizziness, DSP vs lidocaine", "assay_type": "in vivo, human", "from_the_text": "61 patients were divided into two groups at random. 29 patients were in the Treatment group, including 22 patients with insufficient blood supply to the cerebral artery, 7 patients with Meniere Disease, 5 patients with high blood pressure, and 2 patients with coronary heart disease. 32 patients were in the control group, including 22 patients with insufficient blood supply to the cerebral artery, 10 patients with Meniere Disease, 7 patients with high blood pressure, and 4 patients with coronary heart disease. 10 tablets of DSP were given to the Treatment group, 3-5 times/day for 3-7 days. 50 mg of lidocaine was injected into the Control group, once a day for 3-7 days.\nTreatment method: (1) Obvious Efficacy: Dizziness and other companion symptoms disappeared, and there was no re-occurrence for 12 hrs after observation. (2) Efficacy: The level of dizziness and other symptoms disappeared. (3) Failure: No improvement."}, "ET, TXB2, 6-Keto-PGF1α": {"system": "ET, TXB2, 6-Keto-PGF1α", "test": "Dog plasma ET, TXB2, 6-Keto-PGF1α", "assay_type": "in vivo", "details": "dogs, Dan Shen Pill 2 g/kg, Diltiazen 5 mg/kg", "protocol": "as §1, §2"}, "[1]": {"details": "Ditiazen 5 mg/kg, 30 min after dosage"}, "[2]": {"details": "Ditiazen 5 mg/kg, 60 min after dosage"}, "[3]": {"details": "Ditiazen 5 mg/kg, 90 min after dosage"}, "[4]": {"details": "Ditiazen 5 mg/kg, 120 min after dosage"}, "[5]": {"details": "Ditiazen 5 mg/kg, 180 min after dosage"}, "[6]": {"details": "Ditiazen 5 mg/kg, after hypoxia before dosage"}, "[7]": {"details": "Insufficient blood supply to the brain"}, "[8]": {"details": "Diltiazen 5 mg/kg, 30 min after dosage"}, "[9]": {"details": "Diltiazen 5 mg/kg, 60 min after dosage"}, "[10]": {"details": "Diltiazen 5 mg/kg, 90 min after dosage"}, "[11]": {"details": "Diltiazen 5 mg/kg, 120 min after dosage"}, "[12]": {"details": "Diltiazen 5 mg/kg, 180 min after dosage"}, "[13]": {"details": "Diltiazen 5 mg/kg, after hypoxia before dosage"}}}
{"smiles": "COc1ccc([C@@H]2Sc3ccccc3N(CCN(C)C)C(=O)[C@@H]2OC(C)=O)cc1", "note": "[Ditiazen]", "values": [{"measurement": "CK, changing in percentage (before dosage = 100%)", "setting": "CK, LDH; [1]", "value": "97.20 ± 12.50", "unit": "%"}, {"measurement": "blood serum CK", "setting": "CK, LDH; [1]", "value": "660.40 ± 184.88", "unit": "U/L"}, {"measurement": "CK, changing in percentage (before dosage = 100%)", "setting": "CK, LDH; [2]", "value": "108.84 ± 20.71", "unit": "%"}, {"measurement": "blood serum CK", "setting": "CK, LDH; [2]", "value": "737.80 ± 159.04", "unit": "U/L"}, {"measurement": "CK, changing in percentage (before dosage = 100%)", "setting": "CK, LDH; [3]", "value": "115.31 ± 19.97", "unit": "%"}, {"measurement": "blood serum CK", "setting": "CK, LDH; [3]", "value": "820.80 ± 289.76", "unit": "U/L"}, {"measurement": "CK, changing in percentage (before dosage = 100%)", "setting": "CK, LDH; [4]", "value": "314.91 ± 23.35", "unit": "%"}, {"measurement": "blood serum CK", "setting": "CK, LDH; [4]", "value": "972.40 ± 347.28", "unit": "U/L"}, {"measurement": "CK, changing in percentage (before dosage = 100%)", "setting": "CK, LDH; [5]", "value": "179.51 ± 10.60", "unit": "%"}, {"measurement": "blood serum CK", "setting": "CK, LDH; [5]", "value": "1238.60 ± 309.12", "unit": "U/L"}, {"measurement": "CK, changing in percentage", "setting": "CK, LDH; [6]", "value": "219.80 ± 38.93", "unit": "%"}, {"measurement": "blood serum CK", "setting": "CK, LDH; [6]", "value": "699.60 ± 211.52", "unit": "U/L"}, {"measurement": "blood serum CK", "setting": "CK, LDH; Ditiazen 5 mg/kg, before hypoxia (normal)", "value": "316.20 ± 63.04", "unit": "U/L"}]}
{"smiles": "CCN(CC)CC(=O)Nc1c(C)cccc1C", "note": "[lidocaine]", "values": [{"measurement": "total efficacy", "setting": "dizziness; 3-7 days, 29 DSP, 32 lidocaine patients", "value": 87.5, "unit": "%"}, {"measurement": "Efficacy, cases", "setting": "dizziness; [7]", "value": 8}, {"measurement": "Failure, cases", "setting": "dizziness; [7]", "value": 2}, {"measurement": "Obvious Efficacy, cases", "setting": "dizziness; [7]", "value": 12}, {"measurement": "Total efficacy, %", "setting": "dizziness; [7]", "value": 91, "unit": "%"}, {"measurement": "Total efficacy, cases", "setting": "dizziness; [7]", "value": 20}, {"measurement": "Efficacy, cases", "setting": "dizziness; Meniere disease", "value": 2}, {"measurement": "Failure, cases", "setting": "dizziness; Meniere disease", "value": 2}, {"measurement": "Obvious Efficacy, cases", "setting": "dizziness; Meniere disease", "value": 6}, {"measurement": "Total efficacy, %", "setting": "dizziness; Meniere disease", "value": 80, "unit": "%"}, {"measurement": "Total efficacy, cases", "setting": "dizziness; Meniere disease", "value": 8}, {"measurement": "Efficacy, cases", "setting": "dizziness; Total (all dizziness patients)", "value": 10}, {"measurement": "Failure, cases", "setting": "dizziness; Total (all dizziness patients)", "value": 4}, {"measurement": "Obvious Efficacy, cases", "setting": "dizziness; Total (all dizziness patients)", "value": 18}, {"measurement": "Total efficacy, %", "setting": "dizziness; Total (all dizziness patients)", "value": 87.5, "unit": "%"}, {"measurement": "Total efficacy, cases", "setting": "dizziness; Total (all dizziness patients)", "value": 28}]}
{"smiles": "COc1ccc([C@@H]2Sc3ccccc3N(CCN(C)C)C(=O)[C@@H]2OC(C)=O)cc1", "note": "[Diltiazen]", "values": [{"measurement": "LDH, changing in percentage (before dosage = 100%)", "setting": "CK, LDH; [8]", "value": "101.14 ± 17.90", "unit": "%"}, {"measurement": "blood serum LDH", "setting": "CK, LDH; [8]", "value": "143.40 ± 28.64", "unit": "U/L"}, {"measurement": "LDH, changing in percentage (before dosage = 100%)", "setting": "CK, LDH; [9]", "value": "92.58 ± 15.17", "unit": "%"}, {"measurement": "blood serum LDH", "setting": "CK, LDH; [9]", "value": "134.40 ± 46.48", "unit": "U/L"}, {"measurement": "LDH, changing in percentage (before dosage = 100%)", "setting": "CK, LDH; [10]", "value": "93.31 ± 19.02", "unit": "%"}, {"measurement": "blood serum LDH", "setting": "CK, LDH; [10]", "value": "153.00 ± 70.80", "unit": "U/L"}, {"measurement": "LDH, changing in percentage (before dosage = 100%)", "setting": "CK, LDH; [11]", "value": "121.32 ± 22.12", "unit": "%"}, {"measurement": "blood serum LDH", "setting": "CK, LDH; [11]", "value": "194.60 ± 76.72", "unit": "U/L"}, {"measurement": "LDH, changing in percentage (before dosage = 100%)", "setting": "CK, LDH; [12]", "value": "117.24 ± 26.69", "unit": "%"}, {"measurement": "blood serum LDH", "setting": "CK, LDH; [12]", "value": "164.80 ± 49.36", "unit": "U/L"}, {"measurement": "LDH, changing in percentage", "setting": "CK, LDH; [13]", "value": "101.14 ± 17.90", "unit": "%"}, {"measurement": "blood serum LDH", "setting": "CK, LDH; [13]", "value": "143.40 ± 28.64", "unit": "U/L"}, {"measurement": "blood serum LDH", "setting": "CK, LDH; Diltiazen 5 mg/kg, before hypoxia (normal)", "value": "106.40 ± 19.12", "unit": "U/L"}, {"measurement": "6-Keto-PGF1α/TXB2", "setting": "ET, TXB2, 6-Keto-PGF1α; 30 min after dosage", "value": "1.507 ± 0.505"}, {"measurement": "6-Keto-PGF1α/TXB2, changing in percentage (before dosage = 100%)", "setting": "ET, TXB2, 6-Keto-PGF1α; 30 min after dosage", "value": "148.42 ± 17.35", "unit": "%"}, {"measurement": "6-Keto-PGF1α/TXB2", "setting": "ET, TXB2, 6-Keto-PGF1α; 60 min after dosage", "value": "1.501 ± 0.358"}, {"measurement": "6-Keto-PGF1α/TXB2, changing in percentage (before dosage = 100%)", "setting": "ET, TXB2, 6-Keto-PGF1α; 60 min after dosage", "value": "155.44 ± 28.97", "unit": "%"}, {"measurement": "6-Keto-PGF1α/TXB2", "setting": "ET, TXB2, 6-Keto-PGF1α; 90 min after dosage", "value": "1.980 ± 0.924"}, {"measurement": "6-Keto-PGF1α/TXB2, changing in percentage (before dosage = 100%)", "setting": "ET, TXB2, 6-Keto-PGF1α; 90 min after dosage", "value": "203.82 ± 83.25", "unit": "%"}, {"measurement": "6-Keto-PGF1α/TXB2", "setting": "ET, TXB2, 6-Keto-PGF1α; 120 min after dosage", "value": "1.980 ± 0.924"}, {"measurement": "6-Keto-PGF1α/TXB2, changing in percentage (before dosage = 100%)", "setting": "ET, TXB2, 6-Keto-PGF1α; 120 min after dosage", "value": "203.82 ± 83.25", "unit": "%"}, {"measurement": "6-Keto-PGF1α/TXB2", "setting": "ET, TXB2, 6-Keto-PGF1α; 180 min after dosage", "value": "1.801 ± 0.596"}, {"measurement": "6-Keto-PGF1α/TXB2, changing in percentage (before dosage = 100%)", "setting": "ET, TXB2, 6-Keto-PGF1α; 180 min after dosage", "value": "198.48 ± 87.02", "unit": "%"}, {"measurement": "6-Keto-PGF1α/TXB2", "setting": "ET, TXB2, 6-Keto-PGF1α; after hypoxia before dosage", "value": "143.40 ± 28.64"}, {"measurement": "6-Keto-PGF1α/TXB2, changing in percentage", "setting": "ET, TXB2, 6-Keto-PGF1α; after hypoxia before dosage", "value": "101.14 ± 17.90", "unit": "%"}, {"measurement": "6-Keto-PGF1α/TXB2", "setting": "ET, TXB2, 6-Keto-PGF1α; before hypoxia (normal value)", "value": "106.40 ± 19.12"}]}
